Results as given in patent US10047067B2, “Composition for treating kidney disease comprising pyrazole derivative” (Ewha University-Industry Collaboration Foundation, priority 2012, dated 2018).

Test system: collagen Iα1 expression in proximal tubular cells (mProx24)
Assay: Inhibitory effect on collagen Iα1 expression in proximal tubular cells (hTGF-β1 stimulated, real-time PCR)
Type: cell-based
Settings: for mrna remaining at 0.01 µM / mrna remaining at 0.1 µM / mrna remaining at 1 µM / mrna remaining at 10 µM / inhibition at 0.01 µM / inhibition at 0.1 µM / inhibition at 1 µM / inhibition at 10 µM / IC50: Mus musculus; for mrna remaining at 0.01 µM / mrna remaining at 0.1 µM / mrna remaining at 1 µM / mrna remaining at 10 µM: Col1, mProx24, 5 ng/ml hTGF-β1 6 hrs, relative to hTGF-β1 alone = 1, read-out: Mean expression level ratio of collagen Iα1 (Col1α) to 18S rRNA; for mrna remaining at 0.01 µM / inhibition at 0.01 µM: 0.01 μM compound; for mrna remaining at 0.1 µM / inhibition at 0.1 µM: 0.1 μM compound; for mrna remaining at 1 µM / inhibition at 1 µM: 1 μM compound; for mrna remaining at 10 µM / inhibition at 10 µM: 10 μM compound; for inhibition at 0.01 µM / inhibition at 0.1 µM / inhibition at 1 µM / inhibition at 10 µM: mProx24, 100% = control without hTGF-β1, 0% = hTGF-β1 alone, read-out: expression inhibition rate (collagen Iα1); for IC50: mProx24, hTGF-β1 stimulated, read-out: IC50 (inhibition of collagen Iα1 expression)
Experimental: mProx24, which is a name of the proximal tubular cells derived from proximal tubule segments obtained by finely sectioning the kidney of adult C57BL6/J mice, was granted from Professor Sugaya, St. Marianna University School of Medicine, Kanagawa, Japan. mProx24 was cultured in DMEM (Dulbecco's modified Eagle's medium) supplemented with 10% fetal calf serum (FCS, Gibco), 100 U/ml penicillin, 100 μg/ml streptomycin, and 44 mM NaHCO3 at 37° C. in a 5% CO2 atmosphere. For quantitation of RNA expression, the cells were cultured in 6-well plates. When the cells grew 90% confluent, the medium was changed with a fresh 0.15% FCS (Gibco)-supplemented DMEM. Incubation in this medium for 24 hrs halted the cell growth to synchronize the growth cycle in the cells. Compounds of Examples 1 to 9 and Comparative Example were respectively dissolved in DMSO (dimethylsulfoxide) to form a concentration of 50 mM, and subjected to serial dilution to 10 mM, 1 mM, 0.1 mM, and 0.01 mM. 10 mM, 1 mM, 0.1 mM, and 0.01 mM solutions of each of the compounds of Examples 1 to 9 and Comparative Example were 1,000-fold diluted in 0.15% FCS (Gibco)-supplemented DMEM to form final concentrations of 10 μM, 1 μM, 0.1 μM, and 0.01 μM, respectively. In addition, 0 μM (DMSO 1 μL) was used. The cells were incubated for 1 hr in the dilutions and then for 6 hrs in the presence of 5 ng/ml recombinant human transforming growth factor-β1 (hTGF-β1, R&D Systems). For the control, hTGF-β1 was not used. Total RNA was extracted from mProx24 using Trizol (Invitrogen). For quantitation of mRNA expression, a reaction volume of 20 μL including cDNA transcripts, primer pairs, and SYBR Green PCR Master Mix (Applied Biosystems) was subjected to real-time PCR with the aid of StepOnePlus (Applied Biosystems) (real-time PCR condition: 95° C., 10 min→40 thermal cycles of denaturation at 95° C. for 15 sec and primer annealing at 60° C. for 1 min→95° C. for 15 sec, 60° C. for 1 min, and 95° C. for 15 sec to measure a melting curve). Quantitation was normalized to 18S rRNA expression level. A pair of primers for mouse collagen Iα1 were 5′-[…]-3′(SEQ ID NO: 13) and 5′-[…]-3′ (SEQ ID NO: 14). Forward and reverse primers for mouse r18S rRNA were 5′-CGAAAGCATTTGCCAAGAAT-3′ (SEQ ID NO: 11) and 5′-AGTCGGCATCGTTTATGGTC-3′ (SEQ ID NO: 12), respectively.
Experiment results are given in Tables 3 to 12 and FIGS. 4 to 13. Tables 3 to 12 and FIGS. 4 to 13 show inhibitory effects of the compounds of Examples 1 to 9 and Comparative Example 1 on collagen Iα1 expression in proximal tubular cells.
Data of Tables 3 to 12 and FIGS. 4 to 13 are measurements of experiments repeated three to five times for each concentration, and are expressed as mean±standard error (SE). Statistic comparison among the groups was analyzed by ANOVA and Fisher's least significant difference test, with significance at p<0.05. *P<0.05 vs. WT, †P<0.05 vs. DM.
In Tables 3 to 12, mean values of expression level ratios of collagen Iα1 (Col1α) to 18S rRNA (18S), and % inhibition against collagen Iα1 expression for each group are shown, together with IC50 value (μM). In this regard, % inhibition means relative inhibition to 100% for the control and 0% for the group that was treated with hTGF-β1 but not with any of the compounds of Examples or Comparative Example.

COc1cccc(-c2cc(O)n(-c3ccccn3)n2)c1 [Compound 18-001, 3-(3-Methoxyphenyl)-1-(Pyridin-2-yl)-1H-Pyrazol-5-ol] gave a mrna remaining at 0.01 µM of 74.8%, a mrna remaining at 0.1 µM of 69.8% and a mrna remaining at 1 µM of 64.2%. For the same compound, the mrna remaining at 10 µM was 34.5%, the inhibition at 0.01 µM was 31% and the inhibition at 0.1 µM was 37.1%. It also gave an inhibition at 1 µM of 44%, an inhibition at 10 µM of 80.5% and an IC50 of 3.19 µM.

In the case of Oc1cc(-c2ccc(Br)cc2)nn1-c1ccccn1 [Compound 18-066, 3-(4-bromophenyl)-1-(pyridin-2-yl)-1H-pyrazol-5-ol], the mrna remaining at 0.01 µM is reported as 78.5%, the mrna remaining at 0.1 µM is reported as 71.7% and the mrna remaining at 1 µM is reported as 72.6%. It also gave a mrna remaining at 10 µM of 58.3%, an inhibition at 0.01 µM of 30.2% and an inhibition at 0.1 µM of 39.8%. For the same compound, the inhibition at 1 µM was 38.5%, the inhibition at 10 µM was 58.6% and the IC50 was 2.14 µM.

CC(=O)Oc1cc(-c2ccc(Br)cc2)nn1-c1ccccn1 [Compound 18-067, 3-(4-bromophenyl)-1-(pyridin-2-yl)-1H-pyrazol-5-yl acetate] showed a mrna remaining at 0.01 µM of 70%, a mrna remaining at 0.1 µM of 60.7% and a mrna remaining at 1 µM of 56.2%. It also gave a mrna remaining at 10 µM of 32.5%, an inhibition at 0.01 µM of 35.6% and an inhibition at 0.1 µM of 46.6%. It also gave an inhibition at 1 µM of 52%, an inhibition at 10 µM of 80.1% and an IC50 of 0.299 µM.

With Oc1cc(-c2cccc(I)c2)nn1-c1ccccn1 [Compound 18-082, 3-(3-iodophenyl)-1-(pyridin-2-yl)-1H-pyrazol-5-ol] the mrna remaining at 0.01 µM was 71%, the mrna remaining at 0.1 µM was 60.5% and the mrna remaining at 1 µM was 39.1%. For the same compound, the mrna remaining at 10 µM was 31.2%, the inhibition at 0.01 µM was 39.5% and the inhibition at 0.1 µM was 53.8%. The inhibition at 1 µM was 83%, the inhibition at 10 µM was 93.7% and the IC50 was 0.105 µM.

Oc1cc(COc2ccc3ccccc3c2)nn1-c1ccccn1 [Compound 18-095, 3-((naphthalen-3-yloxy)methyl)-1-(pyridin-2-yl)-1H-pyrazol-5-ol] was tested, and the mrna remaining at 0.01 µM was 69.9%, the mrna remaining at 0.1 µM was 66.3% and the mrna remaining at 1 µM was 50.4%. The mrna remaining at 10 µM was 26.8%, the inhibition at 0.01 µM was 37.2% and the inhibition at 0.1 µM was 41.7%. For the same compound, the inhibition at 1 µM was 61.4%, the inhibition at 10 µM was 90.6% and the IC50 was 0.227 µM.

Oc1cc(-c2ccccc2-c2ccc3c(c2)OCO3)nn1-c1ccccn1 [Compound 18-177, 3-(2-(benzo[d][1,3]dioxol-5-yl)phenyl)-1-(pyridin-2-yl)-1H-pyrazol-5-ol] gave a mrna remaining at 0.01 µM of 96%, a mrna remaining at 0.1 µM of 83.9% and a mrna remaining at 1 µM of 74.2%. For the same compound, the mrna remaining at 10 µM was 43.8%, the inhibition at 0.01 µM was 5.46% and the inhibition at 0.1 µM was 22%. It also gave an inhibition at 1 µM of 35.2%, an inhibition at 10 µM of 76.7% and an IC50 of 1.31 µM.

Oc1cc(-c2ccc(-c3ccccc3)cc2)nn1-c1ncccn1 [Compound 18-186, 3-(biphenyl-4-yl)-1-(pyrimidin-2-yl)-1H-pyrazol-5-ol] gave a mrna remaining at 0.01 µM of 82.5%, a mrna remaining at 0.1 µM of 56.9% and a mrna remaining at 1 µM of 58.6%. For the same compound, the mrna remaining at 10 µM was 58.3%, the inhibition at 0.01 µM was 22.5% and the inhibition at 0.1 µM was 55.4%. The inhibition at 1 µM was 53.2%, the inhibition at 10 µM was 53.6% and the IC50 was 0.078 µM.

c1ccc(COc2c(Cc3ccccc3)c(-c3ccccc3)nn2-c2ccccn2)cc1 [Compound 18-233, 3-Phenyl-4-Benzyl-5-Benzyloxy-1-(2-Pyridinyl)Pyrazole, reference compound] showed a mrna remaining at 0.01 µM of 93.3%, a mrna remaining at 0.1 µM of 75.7% and a mrna remaining at 1 µM of 71.2%. The mrna remaining at 10 µM was 65.6%, the inhibition at 0.01 µM was 8.23% and the inhibition at 0.1 µM was 29.9%. It also gave an inhibition at 1 µM of 35.4%, an inhibition at 10 µM of 42.3% and an IC50 of 10.2 µM. The “expression of the extracellular matrix, collagen Iα1 (Col1α), in proximal tubular cells” value (result in words) was “decreased the expression level”.

Work on CCCc1c(/C=C/c2ccc(O)c(OC)c2)nn(-c2ccccn2)c1O [Compound 18-273, 3-{2-(4-hydroxy-3-methoxyphenyl)vinyl}-4-propyl-1-(2-pyridinyl)pyrazol-5-ol] yielded a mrna remaining at 0.01 µM of 40.8%, a mrna remaining at 0.1 µM of 83.5% and a mrna remaining at 1 µM of 83.2%. For the same compound, the mrna remaining at 10 µM was 46%, the inhibition at 0.01 µM was 82.6% and the inhibition at 0.1 µM was 23%. For the same compound, the inhibition at 1 µM was 23.4%, the inhibition at 10 µM was 75.3% and the IC50 was 1.78 µM.
